Results taken from ChEMBL document CHEMBL5126521, “Analgesic Opioid Ligand Discovery Based on Nonmorphinan Scaffolds Derived from Natural Sources” (J Med Chem, 2022).
pEC50, pIC50, pKi: −log10 of the molar value. Square brackets hold non-standard residues; d marks the D form. Peptide text beside a SMILES is read from it.

Columns and labels:
[1] = target: T1, Mu-type opioid receptor (Homo sapiens, UniProt P35372); test: Agonist activity at human recombinant MOP expressed in CHO cells by calcium mobilization assay; assay type: functional, cell-based
T1 sequence (P35372 whole entry): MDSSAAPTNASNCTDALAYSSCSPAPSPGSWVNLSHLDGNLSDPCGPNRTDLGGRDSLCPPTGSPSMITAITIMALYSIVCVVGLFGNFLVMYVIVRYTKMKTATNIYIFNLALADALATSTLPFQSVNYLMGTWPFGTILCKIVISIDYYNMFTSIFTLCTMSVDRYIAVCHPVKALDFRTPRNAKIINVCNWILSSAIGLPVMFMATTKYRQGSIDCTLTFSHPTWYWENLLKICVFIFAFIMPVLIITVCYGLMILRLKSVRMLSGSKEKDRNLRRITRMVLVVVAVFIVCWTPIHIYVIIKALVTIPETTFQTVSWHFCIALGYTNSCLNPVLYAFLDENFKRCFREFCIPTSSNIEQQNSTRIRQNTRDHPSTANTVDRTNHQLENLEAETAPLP

[2] = tested on: Mus musculus; test: Antinociceptive activity in Swiss albino mouse assessed tail flick response in warm water administered icv; assay type: functional
[3] = target: Delta-type opioid receptor (Rattus norvegicus, UniProt P33533); test: Inhibition of Wistar rat brain membrane DOP; assay type: cell membranes
Sequence of Delta-type opioid receptor (Rattus norvegicus, UniProt P33533) (P33533 whole entry): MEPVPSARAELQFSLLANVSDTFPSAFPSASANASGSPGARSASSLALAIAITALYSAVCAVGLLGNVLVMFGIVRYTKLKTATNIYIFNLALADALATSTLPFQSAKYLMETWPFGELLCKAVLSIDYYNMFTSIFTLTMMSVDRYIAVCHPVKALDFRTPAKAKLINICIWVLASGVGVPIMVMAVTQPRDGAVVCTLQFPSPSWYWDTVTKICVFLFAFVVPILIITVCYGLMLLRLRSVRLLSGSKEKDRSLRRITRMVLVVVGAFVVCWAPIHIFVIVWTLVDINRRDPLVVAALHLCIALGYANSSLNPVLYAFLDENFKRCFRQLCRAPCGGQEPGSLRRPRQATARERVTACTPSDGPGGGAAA

[4] = target: Mu-type opioid receptor (Rattus norvegicus, UniProt P33535); test: Inhibition of Wistar rat brain membrane MOP; assay type: cell membranes
Sequence of Mu-type opioid receptor (Rattus norvegicus, UniProt P33535) (P33535 whole entry): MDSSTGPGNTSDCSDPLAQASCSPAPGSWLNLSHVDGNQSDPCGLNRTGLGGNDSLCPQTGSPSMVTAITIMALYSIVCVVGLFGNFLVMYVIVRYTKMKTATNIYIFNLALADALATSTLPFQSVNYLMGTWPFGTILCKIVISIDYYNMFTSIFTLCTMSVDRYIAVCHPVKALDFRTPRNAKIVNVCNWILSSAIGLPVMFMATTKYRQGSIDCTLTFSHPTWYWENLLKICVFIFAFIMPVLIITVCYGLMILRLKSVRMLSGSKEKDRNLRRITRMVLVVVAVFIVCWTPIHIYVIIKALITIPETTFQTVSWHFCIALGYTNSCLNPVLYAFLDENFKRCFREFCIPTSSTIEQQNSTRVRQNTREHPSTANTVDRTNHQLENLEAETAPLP

[5] = Stability in rat brain homogenate assessed as compound remaining measured after 90 mins relative to control; assay type: ADME, tissue-based; conditions: read-out: Stability
[6] = target: Mu-type opioid receptor (Cavia porcellus, UniProt P97266); test: Antagonist activity at guinea pig ileum MOP; assay type: functional, tissue-based
Sequence of Mu-type opioid receptor (Cavia porcellus, UniProt P97266) (P97266 whole entry): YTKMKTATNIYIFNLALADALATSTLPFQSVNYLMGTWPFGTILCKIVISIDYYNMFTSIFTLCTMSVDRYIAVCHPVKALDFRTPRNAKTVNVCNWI

[7] = tested on: Mus musculus; test: Antinociceptive activity in mouse administered icv; assay type: functional
[8] = Half life in mouse liver microsomes; assay type: ADME, Microsome
[9] = Toxicity in icv dosed C57BL/6J mouse assessed as antinociceptive activity tolerance; assay type: organism-based; conditions: in vivo, icv_or_intrathecal
[10] = tested on: Mus musculus; test: Antinociceptive activity in icv dosed C57BL/6J mouse assessed as tail withdrawal latency from warm water; assay type: functional
[11] = tested on: Rattus norvegicus; test: Antinociceptive activity in rat administered icv by tail pressure test relative to control; assay type: functional; parameters: concentration or dose not given beside the values
[12] = target: T1, Mu-type opioid receptor; test: Binding affinity to MOP (unknown origin)
[13] = target: T2, Delta-type opioid receptor (Homo sapiens, UniProt P41143); test: Binding affinity to DOP (unknown origin)
T2 sequence (P41143 whole entry): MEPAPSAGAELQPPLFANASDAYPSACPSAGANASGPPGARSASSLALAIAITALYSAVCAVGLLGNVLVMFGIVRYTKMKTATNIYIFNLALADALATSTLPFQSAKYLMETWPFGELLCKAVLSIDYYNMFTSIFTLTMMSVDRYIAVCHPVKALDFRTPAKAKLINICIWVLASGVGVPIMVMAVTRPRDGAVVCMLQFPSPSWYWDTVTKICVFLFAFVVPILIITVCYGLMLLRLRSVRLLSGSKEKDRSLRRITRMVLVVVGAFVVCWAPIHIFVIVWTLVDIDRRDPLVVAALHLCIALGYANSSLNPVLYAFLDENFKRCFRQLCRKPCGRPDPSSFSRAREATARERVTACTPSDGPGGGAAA

[14] = target: Mu-type opioid receptor (Mus musculus, UniProt P42866); test: Antagonist activity at mouse vas deferns MOP; assay type: functional
Sequence of Mu-type opioid receptor (Mus musculus, UniProt P42866) (P42866 whole entry): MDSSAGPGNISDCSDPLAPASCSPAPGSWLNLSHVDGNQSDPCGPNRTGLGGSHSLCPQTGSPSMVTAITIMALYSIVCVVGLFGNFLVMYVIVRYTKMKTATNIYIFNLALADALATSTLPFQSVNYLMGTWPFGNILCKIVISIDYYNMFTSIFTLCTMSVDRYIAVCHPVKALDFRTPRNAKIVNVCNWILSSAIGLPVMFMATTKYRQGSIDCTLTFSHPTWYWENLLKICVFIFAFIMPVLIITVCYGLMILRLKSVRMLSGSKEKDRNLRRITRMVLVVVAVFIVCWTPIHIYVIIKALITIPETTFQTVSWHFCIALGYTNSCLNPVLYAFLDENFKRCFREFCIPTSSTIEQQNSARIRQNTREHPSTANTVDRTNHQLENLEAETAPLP

[15] = target: T1, Mu-type opioid receptor; test: Displacement of [3H]DAMGO from MOP (unknown origin) stably expressed in HEK293 cells by liquid scintillation counter analysis; assay type: cell-based
[16] = target: T2, Delta-type opioid receptor; test: Displacement of [3H]DPDPE from DOP (unknown origin) stably expressed in HEK293 cells by liquid scintillation counter analysis; assay type: cell-based
[17] = target: T1, Mu-type opioid receptor; test: Agonist activity at MOP (unknown origin) stably expressed in HEK293 cells assessed as forskolin stimulated cAMP accumulation incubated for 30 mins by radioactivity based scintillation counter analysis; assay type: functional, cell-based
[18] = target: T1, Mu-type opioid receptor; test: Agonist activity at MOP (unknown origin) stably expressed in HEK293 cells assessed as forskolin stimulated cAMP accumulation incubated for 30 mins by radioactivity based scintillation counter analysis relative to control; assay type: functional, cell-based; conditions: filed as agonist
[19] = Stability in mouse serum assessed as half life; assay type: ADME, cell-free
[20] = Stability in mouse brain homogenate assessed as half life; assay type: ADME, tissue-based
[21] = target: T1, Mu-type opioid receptor; test: Displacement of [3H]DAMGO from MOP (unknown origin) stably expressed in CHO cell membrane incubated for 90 mins by scintillation counter analysis; assay type: cell membranes
[22] = target: Kappa-type opioid receptor (Homo sapiens, UniProt P41145); test: Displacement of [3H]diprenorphine from KOP (unknown origin) stably expressed in CHO cell membrane incubated for 90 mins by scintillation counter analysis; assay type: cell membranes
Sequence of Kappa-type opioid receptor (P41145 whole entry): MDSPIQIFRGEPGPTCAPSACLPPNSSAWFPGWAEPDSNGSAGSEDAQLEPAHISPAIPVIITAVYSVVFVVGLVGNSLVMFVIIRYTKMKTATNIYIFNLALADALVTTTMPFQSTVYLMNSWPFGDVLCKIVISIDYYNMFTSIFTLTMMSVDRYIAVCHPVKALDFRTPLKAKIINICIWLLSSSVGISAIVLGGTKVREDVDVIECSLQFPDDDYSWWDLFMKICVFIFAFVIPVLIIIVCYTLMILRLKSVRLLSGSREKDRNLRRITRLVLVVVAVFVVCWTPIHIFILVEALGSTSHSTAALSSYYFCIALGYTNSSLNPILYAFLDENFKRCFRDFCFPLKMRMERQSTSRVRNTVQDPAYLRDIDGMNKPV

Structure (SMILES): Cc1ccccc1[C@@H]1NC(=O)[C@H](NC(=O)[C@@H](N)Cc2c(C)cc(O)cc2C)CCCCNC(=O)C[C@@H](C(N)=O)NC(=O)[C@H](c2ccccc2)NC1=O
- pEC50 [1]: 8.25
- ED50 [2]: 0.03 µg
- pIC50 [3]: 6.70
- pIC50 [4]: 8.96
- remaining at […] [5]: 85%

Structure (SMILES): N=C(N)NCCC[C@@H](NC(=O)[C@@H](N)Cc1ccc(O)cc1)C(=O)N[C@@H](Cc1ccccc1)C(=O)NCC(=O)N[C@@H](Cc1ccc(O)cc1)C(N)=O
- pIC50 [6]: 6.80
- ED50 [7]: 20.2 pmol

Structure (SMILES): O=C1N[C@@H](Cc2ccccc2)C(=O)N2CCC[C@@H]2C(=O)N[C@@H](Cc2ccccc2)C(=O)N[C@H]1Cc1c[nH]c2ccccc12
- half-life [8]: 0.817 h
- ED50 [9]: 5.23 nmol
- ED50 [10]: 1.74 nmol

Structure (SMILES): Cc1ccc([C@@H]2NC(=O)[C@H](NC(=O)[C@@H](N)Cc3c(C)cc(O)cc3C)CCCCNC(=O)C[C@@H](C(N)=O)NC(=O)[C@H](c3ccccc3)NC2=O)cc1
- pEC50 [1]: 8.55
- ED50 [2]: 0.39 µg
- pIC50 [3]: 6.81
- pIC50 [4]: 8.84
- remaining at […] [5]: 85%

Structure (SMILES): Cc1ccc([C@@H]2NC(=O)[C@H](c3ccccc3)NC(=O)[C@H](NC(=O)[C@@H](N)Cc3c(C)cc(O)cc3C)CCCCNC(=O)C[C@@H](C(N)=O)NC2=O)cc1
- pEC50 [1]: 8.11
- ED50 [2]: 0.006 µg
- pIC50 [3]: 7.83
- pIC50 [4]: 10.70
- remaining at […] [5]: 85%

Structure (SMILES): C[C@@H](NC(=O)[C@@H](N)Cc1ccc(O)cc1)C(=O)N[C@@H](Cc1ccccc1)C(=O)NCC(=O)N[C@@H](Cc1ccc(O)cc1)C(=O)N1CCC[C@H]1C(=O)N[C@@H](CO)C(N)=O [listing 1 of 2 here]
- Activity [11]: <0.05%

Structure (SMILES): C[C@@H](NC(=O)[C@@H](N)Cc1ccc(O)cc1)C(=O)N[C@@H](Cc1ccccc1)C(=O)NCC(=O)N[C@@H](Cc1ccc(O)cc1)C(N)=O (H-Y[dA]FGY-NH2)
- Activity [11]: 27%
- pKi [12]: 9.01
- pKi [13]: 7.06
- pIC50 [6]: 8.54
- pIC50 [14]: 7.62

Structure (SMILES): C=C(C(N)=O)[C@@H](NC(=O)[C@H](Cc1ccccc1)NC(=O)[C@@H](C)N(C)C(=O)[C@@H](N)Cc1c(C)cc(O)cc1C)c1ccccc1
- pKi [15]: 10.29
- pKi [16]: 7.25
- pEC50 [17]: 12.29
- Emax [18]: 95.1%
- half-life [19]: ≥ 5 h
- half-life [20]: ≥ 5 h

Structure (SMILES): Cc1cccc([C@@H]2NC(=O)[C@H](c3ccccc3)NC(=O)[C@H](NC(=O)[C@@H](N)Cc3c(C)cc(O)cc3C)CCCCNC(=O)C[C@@H](C(N)=O)NC2=O)c1
- pEC50 [1]: 8.96
- ED50 [2]: 0.01 µg
- pIC50 [3]: 7.73
- pIC50 [4]: 10.10
- remaining at […] [5]: 85%

Structure (SMILES): N=C(N)NCCC[C@@H](NC(=O)[C@@H](N)Cc1ccc(O)cc1)C(N)=O
- pIC50 [6]: 4.36
- ED50 [7]: 47000 pmol

Structure (SMILES): O=C1N[C@H](Cc2c[nH]c3ccccc23)C(=O)N[C@H](Cc2ccccc2)C(=O)N2CCC[C@@H]2C(=O)N[C@H]1Cc1ccccc1
- half-life [8]: ≤ 0.5 h
- pKi [21]: < 4.00
- pKi [22]: < 4.00
- ED50 [10]: 2.39 nmol

Structure (SMILES): C=C(C(N)=O)[C@@H](NC(=O)[C@H](Cc1ccccc1)NC(=O)[C@@H](C)N(C)C(=O)[C@@H](N)Cc1c(C)cc(O)cc1C)c1ccco1
- pKi [15]: 10.85
- pKi [16]: 7.33
- pEC50 [17]: 11.70
- Emax [18]: 96.9%
- half-life [19]: ≥ 5 h
- half-life [20]: ≥ 5 h

Structure (SMILES): C=C(C(N)=O)[C@@H](NC(=O)[C@H](Cc1c[nH]c2ccccc12)NC(=O)[C@@H](C)N(C)C(=O)[C@@H](N)Cc1c(C)cc(O)cc1C)c1ccccc1
- pKi [15]: 10.49
- pKi [16]: 7.43
- pEC50 [17]: 11.40
- Emax [18]: 98.1%
- half-life [19]: ≥ 5 h
- half-life [20]: ≥ 5 h

Structure (SMILES): Cc1cc(O)cc(C)c1C[C@H](N)C(=O)N[C@@H]1CCCCNC(=O)C[C@@H](C(N)=O)NC(=O)[C@H](c2ccccc2)NC(=O)[C@H](c2ccccc2)NC1=O
- pEC50 [1]: 8.76
- ED50 [2]: 0.02 µg
- pIC50 [3]: 6.40
- pIC50 [4]: 9.59
- remaining at […] [5]: 85%

Structure (SMILES): C=C(C(=O)O)[C@@H](N)c1ccco1
- half-life [19]: ≥ 5 h
- half-life [20]: ≥ 5 h

Structure (SMILES): C[C@@H](NC(=O)[C@@H](N)Cc1ccc(O)cc1)C(=O)N[C@@H](Cc1ccccc1)C(=O)NCC(=O)N[C@@H](Cc1ccc(O)cc1)C(=O)N1CCC[C@H]1C(N)=O
- Activity [11]: 25%
- pKi [12]: 8.80
- pKi [13]: 6.49
- pIC50 [6]: 8.57
- pIC50 [14]: 7.36

Structure (SMILES): Cc1cc(O)cc(C)c1C[C@H](N)C(=O)O
- half-life [19]: ≥ 5 h
- half-life [20]: ≥ 5 h

Structure (SMILES): C=C(C(=O)O)[C@@H](N)c1ccccc1
- half-life [19]: ≥ 5 h
- half-life [20]: ≥ 5 h

Structure (SMILES): N=C(N)NCCC[C@@H](NC(=O)[C@@H](N)Cc1ccc(O)cc1)C(=O)N[C@@H](Cc1ccccc1)C(=O)NCC(=O)N[C@@H](Cc1ccc(O)cc1)C(=O)N1CCC[C@H]1C(N)=O
- pIC50 [6]: 6.72
- ED50 [7]: 12.5 pmol

Structure (SMILES): C[C@@H](NC(=O)[C@@H](N)Cc1ccc(O)cc1)C(=O)N[C@@H](Cc1ccccc1)C(=O)NCC(=O)O (H-Y[dA]FG-OH)
- Activity [11]: 25%
- pKi [12]: 7.92
- pKi [13]: 5.74
- pIC50 [6]: 7.46
- pIC50 [14]: 6.58

Structure (SMILES): C[C@@H](NC(=O)[C@@H](N)Cc1ccc(O)cc1)C(=O)N[C@@H](Cc1ccccc1)C(N)=O
- Activity [11]: <0.2%
- pIC50 [6]: 6.58
- pIC50 [14]: 5.39

Structure (SMILES): Cc1ccccc1[C@@H]1NC(=O)[C@H](c2ccccc2)NC(=O)[C@H](NC(=O)[C@@H](N)Cc2c(C)cc(O)cc2C)CCCCNC(=O)C[C@@H](C(N)=O)NC1=O
- pEC50 [1]: 8.25
- ED50 [2]: 0.05 µg
- pIC50 [3]: 8.69
- pIC50 [4]: 10.40
- remaining at […] [5]: 85%

Structure (SMILES): C[C@@H](NC(=O)[C@@H](N)Cc1ccc(O)cc1)C(=O)N[C@@H](Cc1ccccc1)C(=O)NCC(=O)N[C@@H](Cc1ccc(O)cc1)C(=O)N1CCC[C@H]1C(=O)N[C@@H](CO)C(N)=O [listing 2 of 2 here]
- pIC50 [6]: < 5.40
- pIC50 [14]: < 4.82

Structure (SMILES): Cc1cccc([C@@H]2NC(=O)[C@H](NC(=O)[C@@H](N)Cc3c(C)cc(O)cc3C)CCCCNC(=O)C[C@@H](C(N)=O)NC(=O)[C@H](c3ccccc3)NC2=O)c1
- pEC50 [1]: 8.53
- ED50 [2]: 0.22 µg
- pIC50 [3]: 6.94
- pIC50 [4]: 9.10
- remaining at […] [5]: 85%

Structure (SMILES): CN[C@H](C)C(=O)O
- half-life [19]: ≥ 5 h
- half-life [20]: ≥ 5 h
